Literature values in patent US10332616B2, “Movable type method applied to protein-ligand binding” (University of Florida Research Foundation, Inc., priority 2013, dated 2019).
Where two headings read alike, the source gives them in different places.

Experiments:
T4 Lysozyme mutant = conditions: PDB ID 1LI2
[1] = experimental solvation free energy, neutral compounds test set
[2] = aqueous solvation free energy, charged compounds (ions)
[3] = experimental solvation free energy, test set with 372 neutral compounds

Structure (SMILES) | Exp. ΔGsolv [1] [kcal/mol] | Exp. ΔGsolv [3] [kcal/mol] | further results
FC1(F)C(F)(F)C(F)(F)C1(F)F [test2023] | 3.43 |  | 
C1CCOC1 [Compound 0061tet] | -3.47 |  | 
C=CCN [i008, allylamine, reference compound] |  |  | Exp. ΔGsolv [2]: -72.00 kcal/mol
CC(=O)Nc1cccc(O)c1 [test3002] | -13.93 |  | 
ClCCl [Compound 0161dic] |  | -1.36 | 
Oc1ccccc1 [phenol] |  |  | binding affinity (pKd) (T4 Lysozyme mutant): 4.04
Clc1ccccc1Cl [Compound 0175odi] |  | -1.36 | 
CC(=O)C(=O)O [i063, pyruvicacid, reference compound] |  |  | Exp. ΔGsolv [2]: -68.50 kcal/mol
CCCSCCC [Compound 0143dip] | -1.27 |  | 
COC(=O)c1ccccc1CS(=O)(=O)NC(=O)Nc1nc(OC)cc(OC)n1 [test1012] | -17.2 |  | 
FC(F)(F)CCl [Compound 0205chl] |  | 0.06 | 
COc1ccc(C(=O)O)cc1 [test3014] | -9.15 |  | 
C#C [Compound 0030eth] |  | -0.01 | 
ClC1=C(Cl)C2(Cl)C3C(Cl)C(Cl)CC3C1(Cl)C2(Cl)Cl (centres unmarked) [test1018] |  | -3.4 | 
FC(F)(F)C(F)(F)Cl [Compound 0424clp] |  | 2.86 | 
FC(F)(F)Br [Compound 0197bro] |  | 1.79 | 
C[N+](=O)[O-] [Compound 0506nit] |  | -3.95 | 
CCCCCBr [Compound 0185bro] |  | -0.08 | 
CC(=O)OCC(COC(C)=O)OC(C)=O [test0001] | -8.84 |  | 
CN(C)C [Compound 0107tri] | -3.23 |  | 
CSc1ccccc1 [Compound 0144thi] | -2.73 |  | 
Nc1cccc2c1C(=O)c1ccccc1C2=O [test1061] | -8 |  | 
Cc1ccc(N)cc1 [i021, 4-methylaniline, reference compound] |  |  | Exp. ΔGsolv [2]: -69.80 kcal/mol

Structure (SMILES) | Exp. ΔGsolv [1] [kcal/mol] | Exp. ΔGsolv [3] [kcal/mol] | further results
COP(=O)(OC)OC [Compound 0220tri] | -8.7 |  | 
CCC#N [Compound 0127pro] |  | -3.85 | 
COC(=O)c1ccc(O)cc1 [test2020] | -9.51 |  | 
CCCN(CC1CC1)c1c([N+](=O)[O-])cc(C(F)(F)F)cc1[N+](=O)[O-] [test1046] |  | -2.5 | 
CCCC(=O)OC [Compound 0096met] | -2.83 |  | 
CCOC(=O)c1ccccc1S(=O)(=O)NC(=O)Nc1nc(Cl)cc(OC)n1 [test1020] | -14 |  | 
Clc1cccc(-c2ccccc2)c1Cl [Compound 0415dcl] |  | -2.45 | 
CCNc1nc(NC(C)(C)C)nc(SC)n1 [test1053] |  | -6.7 | 
Cc1c(Cl)cccc1Nc1ccccc1C(=O)O [test3019] | -6.71 |  | 
CCOP(=S)(OCC)SCSCC [test1045] | -4.4 |  | 
CCCN(CCC)c1c([N+](=O)[O-])cc(S(C)(=O)=O)cc1[N+](=O)[O-] [test1040] | -8 |  | 
CCCC(C)=O [Compound 0078pen] |  | -3.53 | 
CCc1ccccc1 [Compound 0037eth] |  | -0.8 | 
CC(=O)O [Compound 0086eth] | -6.7 |  | 
Cc1ccc(C)cc1 [Compound 0040pxy] |  | -0.81 | 
NC(=S)c1c(Cl)cccc1Cl [Compound 0427dcl] |  | -10.81 | 
Cc1cccc(N)c1 [i020, 3-methylaniline, reference compound] |  |  | Exp. ΔGsolv [2]: -69.60 kcal/mol
CCOP(=S)(OCC)SCSP(=S)(OCC)OCC [test1031] | -6.1 |  | 
CCc1cccc(CC)c1N(COC)C(=O)CCl [test1007] | -8.2 |  | 
Nc1ccc(N=Nc2ccc([N+](=O)[O-])cc2)cc1 [test1058] |  | -11.2 | 
C=CCO [Compound 0145pro] | -5.08 |  | 
C [Compound 0001met] |  | 2 | 
O=C1C2CC=CCC2C(=O)N1SC(Cl)(Cl)Cl (centres unmarked) [test1014] | -9 |  | 

Structure (SMILES) | Exp. ΔGsolv [1] [kcal/mol] | Exp. ΔGsolv [3] [kcal/mol] | further results
CCCCCCC [Compound 0007nhe] |  | 2.62 | 
CNC(=O)Oc1cccc2ccccc12 [test1015] | -9.5 |  | 
Cn1cnc2c(N)ncnc21 [Compound 0402adn] |  | -13.6 | 
Cc1cccc(C)c1 [Compound 0039mxy] |  | -0.84 | 
CCCCCC [Compound 0006nhe] |  | 2.49 | 
Brc1ccccc1 [Compound 0186bro] |  | -1.46 | 
COC=O [Compound 0091met] | -2.78 |  | 
CCC(=O)O [Compound 0087pro] | -6.47 |  | 
OCCO [Compound 0046eth] | -9.3 |  | 
C#CCCCC [Compound 0034hex] |  | 0.29 | 
C=CC [Compound 0022pro] |  | 1.27 | 
CCCN [i004, n-propylamine, reference compound] |  |  | Exp. ΔGsolv [2]: -71.50 kcal/mol
CCCCC=O [Compound 0073pen] | -3.03 |  | 
c1ccc2ccccc2c1 [Compound 0041nap] |  | -2.39 | 
CCCC[N+](=O)[O-] [Compound 0133nit] |  | -3.08 | 
CCc1cnccn1 [Compound 0230eth] |  | -5.51 | 
CN(C)C(=O)Nc1ccccc1 [Compound 0401amia] | -9.63 |  | 
OC1CCCC1 [Compound 0051cyc] | -5.49 |  | 
C=CCCCC [Compound 0029hex] |  | 1.68 | 
CC(C)[N+](=O)[O-] [Compound 0132nit] |  | -3.14 | 
FC(F)(Cl)C(F)(Cl)Cl [Compound 0206tri] |  | 1.77 | 
Cc1ccc(Br)cc1 [Compound 0420pbr] |  | -1.39 | 
Nc1ccc([N+](=O)[O-])cc1 [test2022] |  | -9.45 | 

Structure (SMILES) | Exp. ΔGsolv [1] [kcal/mol] | Exp. ΔGsolv [3] [kcal/mol] | further results
CCCOC(=O)c1ccc(O)cc1 [test2026] | -9.37 |  | 
Cc1ccncc1 [Compound 0121met] |  | -4.94 | 
Cc1ccc(N)cc1 [n011] | -5.55 |  | 
COC(=O)c1ccccc1 [Compound 0240met] | -3.91 |  | 
COP(=O)(OC)C(O)C(Cl)(Cl)Cl (centres unmarked) [test1055] | -12.7 |  | 
COC(C)C [Compound 0065met] | -2.01 |  | 
CCCNCCC [Compound 0115dip] | -3.66 |  | 
Nc1cccc(Cl)c1 [i125, 3-chloroaniline, reference compound] |  |  | Exp. ΔGsolv [2]: -74.70 kcal/mol
CCCC(C)C [Compound 0012met] |  | 2.52 | 
CC(N)=O [Compound 0233ethb] | -9.71 |  | 
Nc1cnn(-c2ccccc2)c(=O)c1Cl [test1049] | -16.4 |  | 
ClCC(Cl)Cl [Compound 0166tri] |  | -1.95 | 
ClC(Cl)(Cl)Br [Compound 0423brt] |  | -0.93 | 
C=C [Compound 0021eth] |  | 1.27 | 
CC(O)C(F)(F)F (centres unmarked) [Compound 0211tri] | -4.16 |  | 
Brc1ccc(Br)cc1 [Compound 0187dib] |  | -2.3 | 
CCCC(=O)CCC [Compound 0083hep] |  | -2.93 | 
CCN(CC)c1c([N+](=O)[O-])cc(C(F)(F)F)c(N)c1[N+](=O)[O-] [test1027] | -5.7 |  | 
CC(C)CC(C)C [Compound 0013dim] |  | 2.88 | 
CCC(=O)Nc1ccc(Cl)c(Cl)c1 [test1048] | -7.8 |  | 
